pIC50: −log10 of the molar value.
Tested on: 242566-281-R-J2-PDC complex spheroid viability
Experiment: Anticancer human tumor 242566-281-R-J2-PDC patient-derived pancreatic carcinoma cell line growth inhibition [RAS]
Details: for pIC50: curve of first compound; for viability, T/C: stronger effect = lower value; active means viability on the fitted dose curve at most 10% of control; inactive means the rest
Method in brief: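 Multi-cell-type spheroids: tumor cells plus HUVEC endothelial cells and mesenchymal stem cells. RAS-pathway inhibitors were combined with targeted agents, each dosed in half-log steps down from clinical Cmax, or from 10 microM when Cmax was unknown.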

[1] = second compound 0.0316 µM, first compound 0.00316 µM
[2] = second compound 0.0316 µM, first compound 0.01 µM
[3] = second compound 0.0316 µM, first compound 0.0316 µM
[4] = second compound 0.0316 µM, first compound 0.1 µM
[5] = second compound 0.0316 µM, first compound 0.316 µM
[6] = second compound 0.0316 µM, first compound 1 µM
[7] = second compound 0.1 µM, first compound 0.00316 µM
[8] = second compound 0.1 µM, first compound 0.01 µM
[9] = second compound 0.1 µM, first compound 0.0316 µM
[10] = second compound 0.1 µM, first compound 0.1 µM
[11] = second compound 0.1 µM, first compound 0.316 µM
[12] = second compound 0.1 µM, first compound 1 µM
[13] = second compound 0.316 µM, first compound 0.00316 µM
[14] = second compound 0.316 µM, first compound 0.01 µM
[15] = second compound 0.316 µM, first compound 0.0316 µM
[16] = second compound 0.316 µM, first compound 0.1 µM
[17] = second compound 0.316 µM, first compound 0.316 µM
[18] = second compound 0.316 µM, first compound 1 µM
[19] = second compound 1 µM, first compound 0.00316 µM
[20] = second compound 1 µM, first compound 0.01 µM
[21] = second compound 1 µM, first compound 0.0316 µM
[22] = second compound 1 µM, first compound 0.1 µM
[23] = second compound 1 µM, first compound 0.316 µM
[24] = second compound 1 µM, first compound 1 µM
[25] = second compound 3.16 µM, first compound 0.00316 µM
[26] = second compound 3.16 µM, first compound 0.01 µM
[27] = second compound 3.16 µM, first compound 0.0316 µM
[28] = second compound 3.16 µM, first compound 0.1 µM
[29] = second compound 3.16 µM, first compound 0.316 µM
[30] = second compound 3.16 µM, first compound 1 µM
[31] = second compound 10 µM, first compound 0.00316 µM
[32] = second compound 10 µM, first compound 0.01 µM
[33] = second compound 10 µM, first compound 0.0316 µM
[34] = second compound 10 µM, first compound 0.1 µM
[35] = second compound 10 µM, first compound 0.316 µM
[36] = second compound 10 µM, first compound 1 µM
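Further: spheroids exposed to compound for 7 days before readout.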
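Wherever viability, T/C is given: 100% = DMSO vehicle control wells.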

C=CC(=O)N1CCN(c2nc(OCC3CCCN3C)nc3c(F)c(-c4nc(N)cc(C)c4C(F)(F)F)c(Cl)cc23)C(C)C1 (stereo not drawn) + C#Cc1c(F)ccc2cc(O)cc(-c3ncc4c(N5CC6CCC(C5)N6)nc(OCC56CCCN5CC(F)C6)nc4c3F)c12
< 6.00: pIC50 (second compound 0.0316 µM) | pIC50 (second compound 0.1 µM) | pIC50 (second compound 0.316 µM) | pIC50 (second compound 1 µM) | pIC50 (second compound 10 µM)
7.52: pIC50 (second compound 3.16 µM)
inactive: viability, T/C [1] 95.7% | viability, T/C [2] 113% | viability, T/C [3] 95.9% | viability, T/C [4] 66.7% | viability, T/C [5] 71.1% | viability, T/C [6] 91.7% | viability, T/C [7] 83.9% | viability, T/C [8] 90.8% | viability, T/C [9] 79.9% | viability, T/C [10] 57.2% | viability, T/C [11] 75.3% | viability, T/C [12] 76.5% | viability, T/C [13] 80% | viability, T/C [14] 74.6% | viability, T/C [15] 60.1% | viability, T/C [16] 62.3% | viability, T/C [17] 56.5% | viability, T/C [18] 63.3% | viability, T/C [19] 60.6% | viability, T/C [20] 61.9% | viability, T/C [21] 48.4% | viability, T/C [22] 50.7% | viability, T/C [23] 56.1% | viability, T/C [24] 61% | viability, T/C [25] 56.4% | viability, T/C [26] 56.8% | viability, T/C [27] 40.5% | viability, T/C [28] 51.1% | viability, T/C [29] 52.5% | viability, T/C [30] 54.5% | viability, T/C [31] 51.2% | viability, T/C [32] 53.2% | viability, T/C [33] 46.8% | viability, T/C [34] 48.6% | viability, T/C [35] 57.3% | viability, T/C [36] 53.4%

CC(=O)OC12COC1CC(O)C1(C)C(=O)C(O)C3=C(C)C(OC(=O)C(O)C(NC(=O)OC(C)(C)C)c4ccccc4)CC(O)(C(OC(=O)c4ccccc4)C21)C3(C)C (stereo not drawn) + C#Cc1c(F)ccc2cc(O)cc(-c3ncc4c(N5CC6CCC(C5)N6)nc(OCC56CCCN5CC(F)C6)nc4c3F)c12
> 7.50: pIC50 (second compound 0.1 µM) | pIC50 (second compound 0.316 µM) | pIC50 (second compound 1 µM) | pIC50 (second compound 3.16 µM) | pIC50 (second compound 10 µM)
inactive: viability, T/C [3] 62.9% | viability, T/C [4] 54.2% | viability, T/C [5] 55% | viability, T/C [6] 37.4% | viability, T/C (second compound 0.0316 µM, first compound 3.16 µM) 55.3% | viability, T/C (second compound 0.0316 µM, first compound 10 µM) 71.7% | viability, T/C [9] 54.4% | viability, T/C [10] 52.1% | viability, T/C [11] 42.2% | viability, T/C [12] 40.9% | viability, T/C (second compound 0.1 µM, first compound 3.16 µM) 52.8% | viability, T/C (second compound 0.1 µM, first compound 10 µM) 56.9% | viability, T/C [15] 45.7% | viability, T/C [16] 43.1% | viability, T/C [17] 30.8% | viability, T/C [18] 40.6% | viability, T/C (second compound 0.316 µM, first compound 3.16 µM) 39.9% | viability, T/C (second compound 0.316 µM, first compound 10 µM) 43.6% | viability, T/C [21] 37.8% | viability, T/C [22] 36.4% | viability, T/C [23] 36.5% | viability, T/C [24] 32.3% | viability, T/C (second compound 1 µM, first compound 3.16 µM) 34.2% | viability, T/C (second compound 1 µM, first compound 10 µM) 29% | viability, T/C [27] 37.1% | viability, T/C [28] 26.4% | viability, T/C [29] 23.6% | viability, T/C [30] 30.3% | viability, T/C (second compound 3.16 µM, first compound 3.16 µM) 30.7% | viability, T/C (second compound 3.16 µM, first compound 10 µM) 23.2% | viability, T/C [33] 30.2% | viability, T/C [34] 26.5% | viability, T/C [35] 23.4% | viability, T/C [36] 25.6% | viability, T/C (second compound 10 µM, first compound 3.16 µM) 28.6% | viability, T/C (second compound 10 µM, first compound 10 µM) 28.2%
< 5.00: pIC50 (second compound 0.0316 µM)

CCc1c2c(nc3ccc(O)cc13)-c1cc3c(c(=O)n1C2)COC(=O)[C@]3(O)CC + C#Cc1c(F)ccc2cc(O)cc(-c3ncc4c(N5CC6CCC(C5)N6)nc(OCC56CCCN5CC(F)C6)nc4c3F)c12
7.50: pIC50 (second compound 0.0316 µM)
8.46: pIC50 (second compound 10 µM)
8.48: pIC50 (second compound 3.16 µM)
7.82: pIC50 (second compound 0.316 µM)
7.62: pIC50 (second compound 0.1 µM)
8.18: pIC50 (second compound 1 µM)
inactive: viability, T/C (second compound 0.0316 µM, first compound 0.000949 µM) 100% | viability, T/C (second compound 0.0316 µM, first compound 0.003 µM) 97.3% | viability, T/C (second compound 0.0316 µM, first compound 0.00949 µM) 76.1% | viability, T/C (second compound 0.0316 µM, first compound 0.03 µM) 51.3% | viability, T/C (second compound 0.0316 µM, first compound 0.0949 µM) 29.3% | viability, T/C (second compound 0.0316 µM, first compound 0.3 µM) 17.7% | viability, T/C (second compound 0.1 µM, first compound 0.000949 µM) 74.1% | viability, T/C (second compound 0.1 µM, first compound 0.003 µM) 86.4% | viability, T/C (second compound 0.1 µM, first compound 0.00949 µM) 70.2% | viability, T/C (second compound 0.1 µM, first compound 0.03 µM) 44.9% | viability, T/C (second compound 0.1 µM, first compound 0.0949 µM) 39.4% | viability, T/C (second compound 0.1 µM, first compound 0.3 µM) 31.7% | viability, T/C (second compound 0.316 µM, first compound 0.000949 µM) 72.8% | viability, T/C (second compound 0.316 µM, first compound 0.003 µM) 74.9% | viability, T/C (second compound 0.316 µM, first compound 0.00949 µM) 53% | viability, T/C (second compound 0.316 µM, first compound 0.03 µM) 45% | viability, T/C (second compound 0.316 µM, first compound 0.0949 µM) 35.4% | viability, T/C (second compound 0.316 µM, first compound 0.3 µM) 36% | viability, T/C (second compound 1 µM, first compound 0.000949 µM) 59.3% | viability, T/C (second compound 1 µM, first compound 0.003 µM) 66% | viability, T/C (second compound 1 µM, first compound 0.00949 µM) 44.3% | viability, T/C (second compound 1 µM, first compound 0.03 µM) 36% | viability, T/C (second compound 1 µM, first compound 0.0949 µM) 29.5% | viability, T/C (second compound 1 µM, first compound 0.3 µM) 30.8% | viability, T/C (second compound 3.16 µM, first compound 0.000949 µM) 56.3% | viability, T/C (second compound 3.16 µM, first compound 0.003 µM) 50.6% | viability, T/C (second compound 3.16 µM, first compound 0.00949 µM) 40.8% | viability, T/C (second compound 3.16 µM, first compound 0.03 µM) 32.7% | viability, T/C (second compound 3.16 µM, first compound 0.0949 µM) 31.5% | viability, T/C (second compound 3.16 µM, first compound 0.3 µM) 30.4% | viability, T/C (second compound 10 µM, first compound 0.000949 µM) 58.6% | viability, T/C (second compound 10 µM, first compound 0.003 µM) 52.5% | viability, T/C (second compound 10 µM, first compound 0.00949 µM) 38.3% | viability, T/C (second compound 10 µM, first compound 0.03 µM) 41% | viability, T/C (second compound 10 µM, first compound 0.0949 µM) 29.2% | viability, T/C (second compound 10 µM, first compound 0.3 µM) 22.8%

Nc1ccn(C2OC(CO)C(O)C2(F)F)c(=O)n1 (stereo not drawn) + C#Cc1c(F)ccc2cc(O)cc(-c3ncc4c(N5CC6CCC(C5)N6)nc(OCC56CCCN5CC(F)C6)nc4c3F)c12
> 8.50: pIC50 (second compound 10 µM)
inactive: viability, T/C [1] 84.9% | viability, T/C [2] 105% | viability, T/C [3] 71.6% | viability, T/C [4] 48.5% | viability, T/C [5] 41.8% | viability, T/C [6] 30.9% | viability, T/C [7] 75.7% | viability, T/C [8] 88.7% | viability, T/C [9] 70.6% | viability, T/C [10] 54.7% | viability, T/C [11] 51.6% | viability, T/C [12] 39.8% | viability, T/C [13] 64% | viability, T/C [14] 71.1% | viability, T/C [15] 49.4% | viability, T/C [16] 52.1% | viability, T/C [17] 49.8% | viability, T/C [18] 44% | viability, T/C [19] 56.2% | viability, T/C [20] 55.5% | viability, T/C [21] 40.8% | viability, T/C [22] 41.4% | viability, T/C [23] 45.7% | viability, T/C [24] 41.9% | viability, T/C [25] 38.6% | viability, T/C [26] 55.4% | viability, T/C [27] 50.8% | viability, T/C [28] 36.5% | viability, T/C [29] 39% | viability, T/C [30] 36.2% | viability, T/C [31] 42.3% | viability, T/C [32] 53.9% | viability, T/C [33] 48.9% | viability, T/C [34] 38.3% | viability, T/C [35] 34.1% | viability, T/C [36] 30.7%
6.74: pIC50 (second compound 0.316 µM)
8.50: pIC50 (second compound 3.16 µM)
7.07: pIC50 (second compound 0.0316 µM)
6.70: pIC50 (second compound 0.1 µM)
7.99: pIC50 (second compound 1 µM)

— PubChem BioAssay AID2060910 (Molecular Pharmacology Branch, DTP, NCI, 2025)
